Read-outs that look alike come from different tables or passages of the source.
Tests used:
Raji = experiment: Binding of La-specific mAb to apoptotic human cancer cell lines (Raji); settings: 2 μM staurosporine, 20 μg/mL etoposide or 0.1 μg/mL vincristine, 3B9-FITC staining
HeLa = experiment: Binding of La-specific mAb to apoptotic human cancer cell lines (HeLa); settings: 0.5 μM staurosporine, 20 μg/mL etoposide or 0.1 μg/mL vincristine, 3B9-FITC staining
U2OS = experiment: Binding of La-specific mAb to apoptotic human cancer cell lines (U2OS); assay type: cell-based; settings: 0.5 μM staurosporine, 20 μg/mL etoposide, 3B9-FITC staining
Method: Direct immunofluorescence staining was performed using 1-2×10^5 cells at 10^6 cells/mL for 30 min at room temperature in PBS containing 0.1% BSA and 5 μg/mL of FITC-conjugated mAb. […] Cell viability was assessed by the exclusion of PI detected using the FL-2 (585-nm filter) or the exclusion of 7-AAD detected using the FL-3 (>650 nm filter).

Jurkat = experiment: Binding of La-specific mAb to apoptotic human cancer cell lines (Jurkat); settings: 0.5 μM staurosporine, 20 μg/mL etoposide or 0.1 μg/mL vincristine, 3B9-FITC staining
apoptotic Jurkat cells = experiment: MDC inhibition of protein crosslinking and 3B9 binding in cisplatin-treated Jurkat cells; assay type: cell-based, human; settings: for IC50: Homo sapiens, read-out: concentration of MDC required to inhibit half of the binding of 3B9
Method: FIG. 18 depicts that La antigen is crosslinked during apoptosis. (A) Jurkat cells incubated in 20 μg/mL cisplatin were removed at specified time points and incubated for 10 min. in 1% Triton X-100 solution before 3B9 binding analysis. Data are presented as density plots of staining with 3B9 vs. 7-AAD. (B) Immunoblots of cell lysates of control and cisplatin-treated Jurkat cells were probed with 3B9 for expression of La (top panels) or actin as a loading control (bottom panels) at specified times. (C) Jurkat cells incubated in the absence or presence of increasing concentrations of cisplatin were labeled with cadaverine-biotin added at 100 μM for 48 h. Cells were stained with strepatavidin-Alexa488 and analyzed by flow cytomtery. Data shown are MFI±SEM (n=3). (D) Jurkat cells incubated in the absence or presence of 20 μg/mL cisplatin were incubated with increasing concentrations of MDC. Cells were analyzed at specified times (24 □, 48 ? and 72 h ▪) for sulforhodamine 101 staining. Inset summarizes the dependence of the protein cross-linking ratio on MDC concentration at 48 h (—) and 72 h ( . . . ) after cisplatin treatment of Jurkat cells. (E) Jurkat cells incubated with cisplatin in the absence or presence of increasing concentrations of MDC were stained with 3B9. 3B9-specific binding is presented as Net MFI±SEM (n=3). Inset summarizes the dependence of 3B9-specific binding on MDC concentration at 24 h (—), 48 h (— —) and 72 h ( . . . ) after cisplatin treatment of Jurkat cells. Data are representative of three identical and independent assays, which produced similar results.
Transglutaminase 2 (TG2)-mediated protein-protein crosslinking in apoptotic cells was investigated using a modification of a previously described method. Briefly, cells were resuspended at 1×10^6 cells/mL in PBS containing 1% Triton X-100, 0.2 μg/mL sulforhodamine 101 and 0.1 μM SytoxGreen. Samples were vortexed and incubated for 5 min. before analysis by flow cytometry where fluorescence from Sytox Green and sulforhodamine were detected using FL-1 and FL-3, respectively. The degree of crosslinking in apoptotic cells was calculated as the ratio of the MFI of sulforhodamine staining in apoptotic cells to the MFI in control cells (protein crosslinking ratio). In other experiments, cells were incubated with PBS or 1% Triton X-100 in PBS for 10 min. at RT with intermittent vortexing.
To test inhibition of protein crosslinking, cultured cells were incubated with increasing concentrations of the competitive TG2inhibitor, monodansylcadaverine (MDC). MDC was dissolved in DMSO at 25 mM and then diluted in culture media before it was added to cell cultures at the specified concentrations for the specified duration. […]

PANC-1 cells [1] = experiment: MTS proliferation assay of PANC-1 cells; assay type: cell-based, human
Method: FIG. 50 depicts that gemcitabine and TSA synergise to reduce proliferation rates among PANC-1 cells in vitro. PANC-1 cells (2×10^4 cells) were seeded in flat bottom 96-well plates overnight using phenol-free RPMI-1640 medium containing 10% FCS (medium). A serial dilution of 2×10^4 cells was used to construct a standard curve for the MTS assay. Triplicate wells were incubated with increasing concentrations of TSA (nM) with or without the addition of increasing concentrations of gemcitabine. Three identical plates were incubated for 24, 48 or 72 h then medium was decanted and fresh medium (100 μL) containing 20 μL MTS/PMS substrate was added to all wells. Assays were performed according to the manufacturer's instructions. The change in the absorbance reading over time was calculated for each condition in units of change per 12 h (upper panel), which was converted to units of cell number change per 12 h (lower panel) using a standard curve of the absorbance reading […] (r^2=0.99).

PANC-1 cells [2] = experiment: Cell death and 3B9 binding of PANC-1 cells treated with gemcitabine and TSA in vitro; assay type: cell-based, human; settings: compared with control or single agent
Method: FIG. 15 depicts that 3B9 binding to dead PANC-1 cells is augmented after combination treatment with gemcitabine and TSA produced additive cytotoxicity and DNA-damaging effects. PANC-1 cells were incubated with increasing concentrations of gemcitabine in the absence (clear columns) or presence of 100 ng/mL (hatched columns) or 200 ng/mL (filled columns) of TSA. Analysis was done for viability using 7-AAD (A), 3B9-specific binding (B) and DNA damage using γH2AX staining (C). Data are presented as mean±SEM from three independent experiments. Photomicrographs show PANC-1 cells treated with gemcitabine and TSA (+) or not (−), which were stained with γH2AX-specific mAb and 7-AAD (D).
Apoptosis or cell death was induced by adding cytotoxic drugs to culture media at the specified concentrations. […] Control (untreated) cells had ≧90% viability determined by PI or trypan blue staining (data not shown). […]
Indirect immunofluorescence staining was performed using purified mouse antibodies at 5 μg/mL for 30 min. at room temperature (RT) in PBS followed by Alexa488-conjugated anti-mouse IgG at 2 μg/mL for 30 min. at RT in PBS. […] Cells were washed then incubated (30 min. at RT) with 2 μg/mL of FITC-conjugated anti-rabbit IgG antibody, which was detected using the FL-1 channel. […] Flow cytometry data were analyzed using WinMDI v2.8 (Scripps Research Institute, La Jolla, Calif.). […]

Compound	percentage of PI+ and 3B9+ events after subtraction of control (PI+ and Sal5+) events (Raji)	percentage of PI+ and 3B9+ events after subtraction of control (PI+ and Sal5+) events (HeLa)	percentage of PI+ and 3B9+ events after subtraction of control (PI+ and Sal5+) events (U2OS)	percentage of PI+ and 3B9+ events after subtraction of control (PI+ and Sal5+) events (Jurkat)	also measured
COc1cc([C@@H]2c3cc4c(cc3[C@@H](O[C@@H]3O[C@@H]5CO[C@@H](C)O[C@H]5[C@H](O)[C@H]3O)[C@H]3COC(=O)[C@H]23)OCO4)cc(OC)c1O [Etoposide, etoposide]	21.3%	36.1%	28.0%	22.6%	
CN(C)c1cccc2c(S(=O)(=O)NCCCCCN)cccc12 [MDC, monodansylcadaverine]					IC50 (apoptotic Jurkat cells; 24 h after cisplatin treatment of Jurkat cells): 260 ± 1 µM; IC50 (apoptotic Jurkat cells; 48 h after cisplatin treatment of Jurkat cells): 110 ± 1 µM; IC50 (apoptotic Jurkat cells; 72 h after cisplatin treatment of Jurkat cells): 150 ± 1 µM; effect on protein crosslinking (sulforhodamine crosslinking ratio) (apoptotic Jurkat cells; cisplatin-treated Jurkat cells): dose-dependent inhibitory effect
CN[C@@H]1C[C@H]2O[C@@](C)([C@@H]1OC)n1c3ccccc3c3c4c(c5c6ccccc6n2c5c31)C(=O)NC4 [Staurosporine, staurosporine]	28.8%	62.5%	65.9%	56.1%	
CC(/C=C/C(=O)NO)=C\[C@@H](C)C(=O)c1ccc(N(C)C)cc1 [TSA, trichostatin A]					proliferation of PANC-1 cells (PANC-1 cells [1]; TSA alone): inhibited proliferation; 3B9-specific binding to PANC-1 cells (PANC-1 cells [2]): did not alter 3B9 binding
CC[C@]1(O)C[C@H]2CN(CCc3c([nH]c4ccccc34)[C@@](C(=O)OC)(c3cc4c(cc3OC)N(C=O)[C@H]3[C@@](O)(C(=O)OC)[C@H](OC(C)=O)[C@]5(CC)C=CCN6CC[C@]43[C@@H]65)C2)C1 [Vincristine, vincristine]	9.8%	18.6%		12.1%	
Nc1ccn([C@@H]2O[C@H](CO)[C@@H](O)C2(F)F)c(=O)n1 [gemcitabine]					proliferation of PANC-1 cells (PANC-1 cells [1]; gemcitabine added at a TSA concentration of 50 nM): completely inhibited; numbers of PANC-1 cells in the cultures (PANC-1 cells [1]; gemcitabine added at a TSA concentration of 200 nM): significantly reduced the numbers

From patent publication US20100135903A1, “USE OF A DNA DAMAGING AGENT AND A LIGAND FOR THE TREATMENT OF CANCER” (MEDVET SCIENCE PTY. LTD., priority 2006, published 2010)
